This note sets out measurements from patent publication US9291629B2, “Adiponectin receptor C-terminal fragments (CTF)-immunoglobulin” (Siemens Healthcare Diagnostics Inc., priority 2011, dated 2016).

Assay [1] relates to green monkey epithelial cell (VERO). The experiment in a line: Western blot of CTF immunoglobulin in induced green monkey epithelial cells (VERO). The settings on record: for Increase of CTF immunoglobulin on treatment of cell cultures: epithelial cell culture; for Primarily observed immunoglobulin chains with CTF: treated epithelial cells, denatured western blot of lysates. The format is cell-based. On the procedure:
(§1) Samples and homogenates with protein concentration of about 20 ug/ml were boiled in water for 5 minutes in buffer with SDS and chilled on ice to denature the protein. The sample was then centrifuged to remove precipitate and was boiled sample 1:1 with BioRad Laemmli buffer with 5% beta-mercaptoethanol to break the disulfide bonds. The treated samples were loaded onto the 12% or 10% Ready Gel (Biorad) and SDS-PAGE gel was run in Tris, glycine, SDS buffer (BioRad) at 110V (BioRad PROTEAN® Tetra Cel) for 1-1.5 hours until the bromophenol blue reached the bottom of the gel. Gel plates were disassembled, soaked in transfer buffer and the gels were transferred to 0.2 um nitrocellulose paper at 30V in a 4° C. chamber overnight.
(§2) After the protein transfer, the nitrocellulose was rinsed and washed with TTBS buffer (20 mM Tris, 500 mM NaCl, pH 7.4, 0.1% Tween®-20). The membrane was then blocked with 5% BSA in TTBS at room temperature with gentle agitation. The blocking buffer was then removed and the membrane was incubated with antibodies conjugated to alkaline phosphatase or horse radish peroxidase. For AdipoR1 CTF, the mAb 444-1D12 conjugated to alkaline phosphatase was used (2.5 mg/ml diluted 1:1000 Siemens Healthcare Diagnostics). The membrane with antibody conjugate was incubated at room temperature for 3 hours or at 4° C. overnight with gentle agitation. The antibody was then discarded and the gel was washed three times with TTBS for 5 minutes each. The membrane was incubated with the alkaline phosphate or horse radish peroxidase substrate and the color developed and recorded. In some cases the membrane was imaged by exposure to X-ray film (Fisher) at a desired time (3 seconds to 10 minutes) and then developed using Kodak® GBX developer/fixer.
(§3) Cell culture mouse myocytes (C2C12) and green monkey epithelial cell (VERO) (American Type Cell Culture, ATCC, Manassa Va.) were maintained in culture using RPMI-1640 media, while normal cells were maintained with modified Eagle's medium (MEM). Both media contained 2 mM glutamine, penicillin (50 units/ml), streptomycin (50 μg/ml), and 10% fetal bovine serum. The media was cytokine free. Cells were grown at 37° C. in an atmosphere of 95% air and 5% CO2 and propagated by splitting with 1 to 4 dilutions using PBS/EDTA at cell growth confluence. Cell lines were synchronized and induced with R1 CTF25 SEQ ID NO:11 or globular adiponectin.
(§4) Both cell lines expressed Adiponectin receptor 1 and lysates from both cell lines contained CTF immunoglobulin, comprising the heavy chain and full IgG but without the light chain form on denatured Western blots. As these are cell cultures grown in fetal bovine serum containing bovine IgG, the cells attach CTF to IgG. […]
For orientation: A western blot detects proteins with antibodies after separation by electrophoresis.

A further assay relates to mouse myocytes (C2C12). The experiment in a line: Western blot of CTF immunoglobulin in induced mouse myocytes (C2C12). The format is cell-based. The following applies: for Increase of CTF immunoglobulin on treatment of cell cultures: myocyte cell culture; for Primarily observed immunoglobulin chains with CTF: treated myocyte, denatured western blot of lysates. The procedure:
as §1, §2, §3, §4

A further assay concerns CTF immunoglobulin. The experiment in a line: Western blot of CTF immunoglobulin in tissues of diabetic rats treated with AdipoR1 CTF25. The format is in vivo. The settings on record: for Primarily observed immunoglobulin chains with CTF: treated diabetic rats. On the procedure: Western blot analyses were run on human plasma, pancreas, adipose, liver and muscles tissue, as well as myocytes and epithelial cell culture homogenates according to the following methods and variations thereof.
as §1, §2
The results of the western blots obtained on liver, pancreas, muscle and mesenteric tissues of normal rats, diabetic rats and diabetic rats treated with AdipoR1 CTF25 (SEQ ID NO: 11) are shown in Table 3. Results are typical for all monoclonal antibodies to CTF AdipoR1 and AdipoR2 and treatments tested. All of the tissues show the presence of CTF immunoglobulins. […] Differences in the amount of immunoglobulin chains with CTF were observed between individual rat and between normal and diabetic rats. All tissues contained IDE and TACE.

With adiponectin [reference compound], the “Increase of CTF immunoglobulin on treatment of cell cultures” value (in assay [1]; in the assay with mouse myocytes (C2C12)) was “did not increase CTF immunoglobulin bands” throughout. The “Primarily observed immunoglobulin chains with CTF” value (in assay [1]; in the assay on mouse myocytes (C2C12)) was “Heavy chains & full” throughout.

For “HFYGVSNLQEFRYGLEGGCTDDTLL [AdipoR1 CTF25]”, the “Increase of CTF immunoglobulin on treatment of cell cultures” value (in assay [1]; in the assay on mouse myocytes (C2C12)) was “did not increase CTF immunoglobulin” each time. Besides, the “Primarily observed immunoglobulin chains with CTF” value is “Heavy chains &” in assay [1]; “Light chains” in the assay with CTF immunoglobulin (liver); “Heavy & light” with CTF immunoglobulin (mesenteric tissues); “Heavy & light” in the assay on CTF immunoglobulin (muscle); “Heavy chain” with CTF immunoglobulin (pancreas); “Heavy chains &” in the assay on mouse myocytes (C2C12). In addition, the “Increase of CTF immunoglobulin bands on treatment” value with CTF immunoglobulin (rat tissues) is “did not increase bands”.
